From article PMC10031466, “The ROK kinase N-acetylglucosamine kinase uses a sequential random enzyme mechanism with successive conformational changes upon each substrate binding” (The Journal of Biological Chemistry, 2023) come the findings set out here.

In experiment [1] the target is T1, N-acetylglucosamine kinase (PsNagK) (Plesiomonas shigelloides, UniProt R8APY9).
T1 construct: gene nagK; His-SUMO tagged P. shigelloides NagK (crystallization)
T1 sequence (R8APY9 1-303): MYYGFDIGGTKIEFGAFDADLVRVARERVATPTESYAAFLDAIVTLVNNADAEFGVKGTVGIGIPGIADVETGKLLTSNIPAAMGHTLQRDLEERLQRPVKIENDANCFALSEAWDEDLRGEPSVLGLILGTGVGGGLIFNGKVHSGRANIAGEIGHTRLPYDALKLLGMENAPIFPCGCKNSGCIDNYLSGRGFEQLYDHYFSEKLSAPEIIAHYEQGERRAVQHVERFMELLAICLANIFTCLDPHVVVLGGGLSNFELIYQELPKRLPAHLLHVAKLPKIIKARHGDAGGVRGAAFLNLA
Kind of experiment: crystal structure; isothermal differential scanning fluorimetry. The format is binding.

The target in experiment [2] is T1, N-acetylglucosamine kinase (PsNagK). Briefly: crystal structures (binary 7PA1; ternary with GlcNAc 7P9P); isothermal differential scanning fluorimetry. The format is binding.

As to `CC(=O)N[C@@H]1[C@@H](O)[C@H](O)[C@@H](CO)O[C@@H]1O` [GlcNAc, N-acetyl-D-glucosamine], the Kd in experiment [1] is 230 ± 20 µM.

Turning to `Nc1ncnc2c1ncn2[C@@H]1O[C@H](COP(=O)(O)OP(=O)(O)NP(=O)(O)O)[C@@H](O)[C@H]1O` [AMP-PNP], the Kd in experiment [2] is 2.2 ± 0.6 mM.
